The source of these data is the supplement of paper PMC11208160.
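Further: IS621 bridge recombinase in Escherichia coli cells against a fixed T5 target plasmid.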

A short description of this data set: recombinant UMI read abundance after kanamycin selection (control-corrected) (log10(CPM+1)); higher = more efficient recombination; extreme values may be limits of the assay; sequences stand for … in AGTGCAGAGAAAATCGGCCAGTTTTCTCTGCCTGCAGTCCGCATGCCGTGGGACCCCTTGGGTTCTAACCTGTTGCCTAGATTTATGCAGCGGACTGCCTTTCTCCCAAAGTGATAAACCGG…AGGTTGGTTTCACT; site = the 11-nt donor. An outline of the steps:
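In a pooled Escherichia coli screen for the IS621 bridge recombinase, donor and donor-binding-loop pairs were each placed with a 12-nt UMI on a plasmid bearing a promoterless kanamycin gene. This library was co-electroporated with a target plasmid encoding a fixed target and T7-inducible recombinase, and cells were plated either on IPTG (0.07 mM) plus kanamycin or without selection, in two replicates each. Recombinant UMIs were PCR-amplified across the donor–target junction and sequenced, and counts were converted to CPM, averaged over replicates, scaled by control-derived factors and reported as log10(CPM+1).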
Regarding “CAATTCCCATGGACCGGTTTTCCCGGTAATCCGTATTTGGT (site CAATTCCCTAT)”, the “recombinant UMI read abundance (log10)” value was 0.681.

As for “CAATTGACATGGACCGGTTTTCCCGGTAATCCGTATTTGAA (site CAATTGACTTT)”, the “recombinant UMI read abundance (log10)” value is 2.17.

Take “CAATTTCCATGGACCGGTTTTCCCGGTAATCCGTATTTGCT (site CAATTACCTAG)”: the “recombinant UMI read abundance (log10)” value amounted to 0.

“CAATTTCCATGGACCGGTTTTCCCGGTAATCCGTATTTGCT (site CAATTCCCTAG)”: the “recombinant UMI read abundance (log10)” value was determined as 0.761.

Turning to “CAATTTCCATGGACCGGTTTTCCCGGTAATCCGTATTTGCT (site CAATTGCCTAG)”, the “recombinant UMI read abundance (log10)” value is 0.00704.

Consider “CAATTTCCATGGACCGGTTTTCCCGGTAATCCGTATTTGCT (site CAATTTCCTAG)”, for which the “recombinant UMI read abundance (log10)” value amounted to 1.08.

For “CACAAATCATGGACCGGTTTTCCCGGTAATCCGTATTTGAC (site CACAAATCTGT)”, the “recombinant UMI read abundance (log10)” value stood at 1.62.

On to “CACAGCCCATGGACCGGTTTTCCCGGTAATCCGTATTTGTT (site CACAGCCCTAA)”, for which the “recombinant UMI read abundance (log10)” value was found to be 0.97.

As to “CACAGCCCATGGACCGGTTTTCCCGGTAATCCGTATTTGTT (site CACCGCCCTAA)”, the “recombinant UMI read abundance (log10)” value turned out to be 0.00684.

As for “CACAGCCCATGGACCGGTTTTCCCGGTAATCCGTATTTGTT (site CACGGCCCTAA)”, the “recombinant UMI read abundance (log10)” value was 0.0224.

On to “CACAGCCCATGGACCGGTTTTCCCGGTAATCCGTATTTGTT (site CACTGCCCTAA)”, for which the “recombinant UMI read abundance (log10)” value amounted to 0.018.

With “CACAGTGCATGGACCGGTTTTCCCGGTAATCCGTATTTGAT (site CACAGTGCTAT)”, the “recombinant UMI read abundance (log10)” value amounted to 2.52.

Consider “CACATGGCATGGACCGGTTTTCCCGGTAATCCGTATTTGCC (site CACATGGCTGG)”, for which the “recombinant UMI read abundance (log10)” value was found to be 0.

“CACCCTACATGGACCGGTTTTCCCGGTAATCCGTATTTGAG (site CACCCTACTCT)”: the “recombinant UMI read abundance (log10)” value came to 1.27.

For the sequence “CACCCTACATGGACCGGTTTTCCCGGTAATCCGTATTTGAG (site CCCCCTACTCT)”, the “recombinant UMI read abundance (log10)” value turned out to be 0.0201.

Regarding “CACCCTACATGGACCGGTTTTCCCGGTAATCCGTATTTGAG (site CGCCCTACTCT)”, the “recombinant UMI read abundance (log10)” value stood at 0.0118.

Take “CACCCTACATGGACCGGTTTTCCCGGTAATCCGTATTTGAG (site CTCCCTACTCT)”: the “recombinant UMI read abundance (log10)” value was determined as 0.0244.

Consider “CACCCTACATGGACCGGTTTTCCCGGTAATCCGTATTTGGC (site CACCCTACTGC)”, for which the “recombinant UMI read abundance (log10)” value was 2.59.

For “CACCTTACATGGACCGGTTTTCCCGGTAATCCGTATTTGTC (site CACCTTACTGA)”, the “recombinant UMI read abundance (log10)” value amounted to 0.

Regarding “CACGACCCATGGACCGGTTTTCCCGGTAATCCGTATTTGTT (site CACGACCCTAA)”, the “recombinant UMI read abundance (log10)” value was 0.631.

“CACGACCCATGGACCGGTTTTCCCGGTAATCCGTATTTGTT (site CACGCCCCTAA)”: the “recombinant UMI read abundance (log10)” value worked out at 0.0282.

For the sequence “CACGACCCATGGACCGGTTTTCCCGGTAATCCGTATTTGTT (site CACGGCCCTAA)”, the “recombinant UMI read abundance (log10)” value stood at 0.0138.

With “CACGACCCATGGACCGGTTTTCCCGGTAATCCGTATTTGTT (site CACGTCCCTAA)”, the “recombinant UMI read abundance (log10)” value was 0.00755.

With “CACGCATCATGGACCGGTTTTCCCGGTAATCCGTATTTGAT (site CACGCATCTAT)”, the “recombinant UMI read abundance (log10)” value came out at 2.51.

Take “CACGCGACATGGACCGGTTTTCCCGGTAATCCGTATTTGGC (site CACGCGACTGC)”: the “recombinant UMI read abundance (log10)” value worked out at 2.94.

For the sequence “CACGCTCCATGGACCGGTTTTCCCGGTAATCCGTATTTGTC (site CACGCTCCTGA)”, the “recombinant UMI read abundance (log10)” value came to 2.39.

Regarding “CACGGACCATGGACCGGTTTTCCCGGTAATCCGTATTTGTT (site CACGGACCTAA)”, the “recombinant UMI read abundance (log10)” value was determined as 0.00996.

Turning to “CACGGACCATGGACCGGTTTTCCCGGTAATCCGTATTTGTT (site CACGGCCCTAA)”, the “recombinant UMI read abundance (log10)” value was found to be 0.403.

Consider “CACGGACCATGGACCGGTTTTCCCGGTAATCCGTATTTGTT (site CACGGGCCTAA)”, for which the “recombinant UMI read abundance (log10)” value stood at 0.387.

In the case of “CACGGACCATGGACCGGTTTTCCCGGTAATCCGTATTTGTT (site CACGGTCCTAA)”, the “recombinant UMI read abundance (log10)” value worked out at 0.

Turning to “CACGGCCCATGGACCGGTTTTCCCGGTAATCCGTATTTGCT (site CACGGCCCTAA)”, the “recombinant UMI read abundance (log10)” value amounted to 0.0432.

“CACGGCCCATGGACCGGTTTTCCCGGTAATCCGTATTTGCT (site CACGGCCCTAC)”: the “recombinant UMI read abundance (log10)” value was 0.0286.

With “CACGGCCCATGGACCGGTTTTCCCGGTAATCCGTATTTGCT (site CACGGCCCTAG)”, the “recombinant UMI read abundance (log10)” value turned out to be 1.12.

Turning to “CACGGCCCATGGACCGGTTTTCCCGGTAATCCGTATTTGCT (site CACGGCCCTAT)”, the “recombinant UMI read abundance (log10)” value stood at 0.636.

“CACGGCCCATGGACCGGTTTTCCCGGTAATCCGTATTTGTG (site CACGGCCCTAA)”: the “recombinant UMI read abundance (log10)” value was determined as 0.0211.

For “CACGGCCCATGGACCGGTTTTCCCGGTAATCCGTATTTGTG (site CACGGCCCTCA)”, the “recombinant UMI read abundance (log10)” value worked out at 0.0766.

Take “CACGGCCCATGGACCGGTTTTCCCGGTAATCCGTATTTGTG (site CACGGCCCTGA)”: the “recombinant UMI read abundance (log10)” value came out at 0.

In the case of “CACGGCCCATGGACCGGTTTTCCCGGTAATCCGTATTTGTG (site CACGGCCCTTA)”, the “recombinant UMI read abundance (log10)” value was determined as 0.00311.

Consider “CACGGTCCATGGACCGGTTTTCCCGGTAATCCGTATTTGCA (site CACGGTCCTTG)”, for which the “recombinant UMI read abundance (log10)” value was determined as 1.74.

As to “CACGGTCCATGGACCGGTTTTCCCGGTAATCCGTATTTGCA (site CCCGGTCCTTG)”, the “recombinant UMI read abundance (log10)” value was 0.

Turning to “CACGGTCCATGGACCGGTTTTCCCGGTAATCCGTATTTGCA (site CGCGGTCCTTG)”, the “recombinant UMI read abundance (log10)” value came to 0.

Regarding “CACGGTCCATGGACCGGTTTTCCCGGTAATCCGTATTTGCA (site CTCGGTCCTTG)”, the “recombinant UMI read abundance (log10)” value came out at 0.

Consider “CACGGTCCATGGACCGGTTTTCCCGGTAATCCGTATTTGTT (site CACGGACCTAA)”, for which the “recombinant UMI read abundance (log10)” value worked out at 0.00385.

As to “CACGGTCCATGGACCGGTTTTCCCGGTAATCCGTATTTGTT (site CACGGCCCTAA)”, the “recombinant UMI read abundance (log10)” value is 0.18.

Turning to “CACGGTCCATGGACCGGTTTTCCCGGTAATCCGTATTTGTT (site CACGGGCCTAA)”, the “recombinant UMI read abundance (log10)” value was determined as 0.00486.

In the case of “CACGGTCCATGGACCGGTTTTCCCGGTAATCCGTATTTGTT (site CACGGTCCTAA)”, the “recombinant UMI read abundance (log10)” value was 1.4.

For the sequence “CACGTACCATGGACCGGTTTTCCCGGTAATCCGTATTTGCT (site CACGTACCTAG)”, the “recombinant UMI read abundance (log10)” value amounted to 0.0043.

As for “CACTACTCATGGACCGGTTTTCCCGGTAATCCGTATTTGCC (site CACTACTCTGG)”, the “recombinant UMI read abundance (log10)” value was determined as 2.55.

Consider “CACTACTCATGGACCGGTTTTCCCGGTAATCCGTATTTGCC (site CACTCCTCTGG)”, for which the “recombinant UMI read abundance (log10)” value amounted to 0.801.

As to “CACTACTCATGGACCGGTTTTCCCGGTAATCCGTATTTGCC (site CACTGCTCTGG)”, the “recombinant UMI read abundance (log10)” value was found to be 0.737.

With “CACTACTCATGGACCGGTTTTCCCGGTAATCCGTATTTGCC (site CACTTCTCTGG)”, the “recombinant UMI read abundance (log10)” value was 0.

Regarding “CACTAGGCATGGACCGGTTTTCCCGGTAATCCGTATTTGGA (site CACTAGGCTTC)”, the “recombinant UMI read abundance (log10)” value came to 0.727.

“CACTAGGCATGGACCGGTTTTCCCGGTAATCCGTATTTGGA (site CACTCGGCTTC)”: the “recombinant UMI read abundance (log10)” value was 0.0143.

Turning to “CACTAGGCATGGACCGGTTTTCCCGGTAATCCGTATTTGGA (site CACTGGGCTTC)”, the “recombinant UMI read abundance (log10)” value turned out to be 0.0136.

Take “CACTAGGCATGGACCGGTTTTCCCGGTAATCCGTATTTGGA (site CACTTGGCTTC)”: the “recombinant UMI read abundance (log10)” value stood at 0.0198.

As for “CACTATGCATGGACCGGTTTTCCCGGTAATCCGTATTTGCG (site CACTATGCTCG)”, the “recombinant UMI read abundance (log10)” value amounted to 1.67.

Regarding “CACTCCCCATGGACCGGTTTTCCCGGTAATCCGTATTTGAC (site CACTCCCCTGT)”, the “recombinant UMI read abundance (log10)” value is 1.54.

On to “CACTCCTCATGGACCGGTTTTCCCGGTAATCCGTATTTGAC (site CACTCCTCTGA)”, for which the “recombinant UMI read abundance (log10)” value was determined as 2.16.

Turning to “CACTCCTCATGGACCGGTTTTCCCGGTAATCCGTATTTGAC (site CACTCCTCTGC)”, the “recombinant UMI read abundance (log10)” value turned out to be 1.9.

“CACTCCTCATGGACCGGTTTTCCCGGTAATCCGTATTTGAC (site CACTCCTCTGG)”: the “recombinant UMI read abundance (log10)” value was determined as 1.55.

Take “CACTCCTCATGGACCGGTTTTCCCGGTAATCCGTATTTGAC (site CACTCCTCTGT)”: the “recombinant UMI read abundance (log10)” value came out at 3.09.

Take “CACTCGACATGGACCGGTTTTCCCGGTAATCCGTATTTGGG (site CAATCGACTCC)”: the “recombinant UMI read abundance (log10)” value amounted to 0.0326.

For “CACTCGACATGGACCGGTTTTCCCGGTAATCCGTATTTGGG (site CACTCGACTCC)”, the “recombinant UMI read abundance (log10)” value came out at 0.2.

Take “CACTCGACATGGACCGGTTTTCCCGGTAATCCGTATTTGGG (site CAGTCGACTCC)”: the “recombinant UMI read abundance (log10)” value turned out to be 0.

As to “CACTCGACATGGACCGGTTTTCCCGGTAATCCGTATTTGGG (site CATTCGACTCC)”, the “recombinant UMI read abundance (log10)” value turned out to be 0.0164.

Consider “CACTGCCCATGGACCGGTTTTCCCGGTAATCCGTATTTGTT (site CACAGCCCTAA)”, for which the “recombinant UMI read abundance (log10)” value was found to be 0.0209.

Regarding “CACTGCCCATGGACCGGTTTTCCCGGTAATCCGTATTTGTT (site CACCGCCCTAA)”, the “recombinant UMI read abundance (log10)” value amounted to 0.287.

As for “CACTGCCCATGGACCGGTTTTCCCGGTAATCCGTATTTGTT (site CACGGCCCTAA)”, the “recombinant UMI read abundance (log10)” value came out at 0.0106.
